From publication PMC12645137 (Current Neuropharmacology, 2025)

Key:
[1] = molecular target: T1, AChE (source Electric eel) (Electrophorus electricus, UniProt O42275); assay: biochemical; settings: for inhibition at 62.5 µg/mL / inhibition at 125 µg/mL / inhibition at 250 µg/mL / inhibition at 500 µg/mL / inhibition at 1000 µg/mL: read-out: % AChE Inhibition
T1 construct: from tissue
Experimental: (§1) The cholinesterase inhibitory potentials of our synthesized compounds were evaluated against cholinesterase enzymes (AChE/BChE). The AChE (source Electric eel) and BChE (source equine serum) were used in the study following previously published Ellman's assay. The assay basic principle involves the hydrolytic breakdown of acetylthiocholine iodide (ATChI) by AChE and butyryl thiocholine iodide (BTChI) by BChE enzymes, leading to the formation of an intermediate compound which is subsequently complexed with 5,5-dithio bis nitrobenzoic acid (DTNB) to form a UV-detectable compound. The yellowish color product indicates the hydrolysis of ATChI and BTChI substrates by respective enzymes, which were analyzed at 412 nm using a UV-visible spectrophotometer. […] A test sample of 1000 µl was taken in a cuvette, to which enzyme solution (50 µl) and DTNB reagent of 50 µL were added. The AChE (0.03 U/ml) and BChE (0.01 U/ml) solutions were prepared in 0.1 M phosphate buffer having pH 8.0. The ATChI and BTChI substrate solutions (0.0005 M) and 0.0002273 M solution of DTNB were prepared using distilled water and stored at 8°C before further use. For 15 minutes, the solution mixture was incubated at 30 °C, after which a solution of the substrate (50 µl) was added and then subjected to spectroscopic analysis. Using a double beam spectrophotometer, the sample absorbance was measured for 4 minutes at 412 nm beside the time of reaction. […] All values were taken in triplicate under the same conditions.
(§2) Enzymatic activity percentage=V/Vmaxx100
(§3) V is the reaction rate in the inhibitor's presence, whereas Vmax is the reaction rate in the absence of the inhibitor.

[2] = molecular target: T2, BChE (source equine serum) (Equus caballus, UniProt P81908); assay: biochemical; settings: for inhibition at 62.5 µg/mL / inhibition at 125 µg/mL / inhibition at 250 µg/mL / inhibition at 500 µg/mL / inhibition at 1000 µg/mL: read-out: % BChE Inhibition
T2 construct: from tissue; host or cells: equine serum
Experimental: as §1, §2, §3

DPPH antioxidant assay = type: physicochemical; settings: for % Inhibition (DPPH free radicals): mean ± SEM
Experimental: To evaluate the in-vitro antioxidant potential of the synthesized derivatives, a previously reported 1,1 Diphenyl, 2 Picrylhydrazyl (DPPH) assay was utilized. The DPPH solution was prepared by dissolving twenty-four mg DPPH in methanol (100 ml). Test sample solutions in various concentrations (62.50 to 1000 μg/mL) were also prepared. From each dilution, 1 ml sample solution was taken to which 1 ml solution of DPPH was added. The solution mixture was incubated at 23°C for 30 minutes in the dark and then subjected to a UV-visible spectrophotometer to note the absorbance at 517 nm. The absorbance values of all samples were taken in triplicate. Ascorbic acid served as positive control, while negative control only contained a solution of DPPH having no test samples. The % free radical scavenging potential of our compounds was determined by the given formula.
% free radical scavenging activity = [drawing 2] x100
X is the control absorbance, whereas X1 is the absorbance of the test sample.

[3] = tested on: scopolamine-induced amnesic mice; assay: Elevated Plus Maze (EPM) test in scopolamine-induced amnesic animals; type: in vivo, albino mice; settings: scopolamine 1 mg/kg amnesic mice, i.p., AN-1 10 mg/kg, progesterone 10 mg/kg, galantamine 8 mg/kg; for retention transfer latency (RTL): 24 h after training, disease group 67 sec; for initial transfer latency (ITL): disease group 73 sec
Experimental: (§4) The mice were divided into the following five groups, and each group had six animals. The standard drug and test samples were carefully administered to the mice via the intraperitoneal route.
(§5) Group IV (Progesterone treated group) = Animals treated with 10 mg/kg progesterone and scopolamine 1 mg/kg.
(§6) Group V (Test compound group) = Animals received 10 mg/kg progesterone derivative (AN-1) and 1 mg/kg scopolamine.
The EPM behavioral test was performed to assess the learning abilities and long-term spatial memory of the experimental animals. The EPM apparatus has the appearance of a plus sign which was 50 cm elevated from the ground. The apparatus has two open arms (50 cm long and 10 cm wide), and two closed arms having dimensions of 20, 50, and 10 cm in height, length, and width, respectively. The open and closed arms were joined with a 10 × 10 central square.
After 30 minutes of the intraperitoneal drug administration on the seventh day of treatment, mice of each group were placed over the open arm end of the EPM apparatus in such a way that their faces were away from the midpoint of the apparatus. Transfer latency (TL) is the time a mouse takes to enter the closed arm entirely with all its legs from the open arm of the apparatus. The time of initial transfer latency (ITL) was observed, and then the animals were allowed freely for 1.5 minutes to search the EPM apparatus.
After twenty-four hours of the training period, test trials were conducted to determine the retention of tasks that were learnt during training. Retention transfer latency (RTL) was measured by placing the experimental mice at the open end of the apparatus, ensuring that they faced away from its midpoint. The mouse was allowed to enter the closed arm entirely with all its legs. A decline in TL compared to ITL indicated an improvement in memory.

[4] = tested on: scopolamine-induced amnesic mice; assay: Y-Maze test in scopolamine-induced amnesic animals; type: in vivo, albino mice; settings: scopolamine 1 mg/kg amnesic mice; i.p.; AN-1 10 mg/kg, progesterone 10 mg/kg, galantamine 8 mg/kg; disease group 22.27%
Experimental: as §4, §5, §6
To determine the effect of synthesized compounds on short-term learning and memory of experimental mice, a Y-Maze test was used. The Y-Maze apparatus consists of three arms that are fixed at 120° angle from each other and have 30 cm length, 20 cm height, and 8 cm width dimensions. After 30 minutes of giving test compounds intraperitoneally, the mouse was positioned at the arm end in such a way that it faced away from the midpoint of the apparatus and was permitted to search the apparatus for five minutes freely. The arm entry sequence and number by each mouse were recorded for 5 minutes using a digital camera. Alternation is defined as the successive entry into 3 dissimilar arms by a mouse (i.e., CBA, BCA, ABC). When the back paws of a mouse were found inside an arm wholly, the arm entry was considered completed. Seventy percent v/v ethanol was used for cleaning the apparatus and to avoid smell cues. The spontaneous alternation performance (SAP) percentage was calculated using the following formula [37]:
% alternation = [(alternations number) / (total arm entries number – 2)] × 100

[5] = tested on: scopolamine-induced amnesic mice; assay: Open field test (OFT) in scopolamine-induced amnesic animals; type: in vivo, albino mice; settings: i.p., AN-1 10 mg/kg, progesterone 10 mg/kg, galantamine 8 mg/kg; for number of lines crossed: 5 min, disease group 26.33; for number of lines crossed / time spent in the central area: scopolamine 1 mg/kg amnesic mice; for time spent in the central area: 30 min exploration, disease group 4.66; for time spent in the peripheral area: versus scopolamine/disease group
Experimental: as §4, §5, §6
Open field behavioral test was carried out for the assessment of locomotor activities like the number of line crossing. The apparatus was made from plywood having 81×81×28.5 cm dimensions. Sixteen squares (20×20 cm) were made on the base of the apparatus by drawing four horizontal and four vertical lines. […] Furthermore, exploration time spent by mice in central and peripheral areas of the apparatus was also recorded by allowing the mice for 30 minutes to explore the apparatus.

T2 sequence (P81908 whole entry): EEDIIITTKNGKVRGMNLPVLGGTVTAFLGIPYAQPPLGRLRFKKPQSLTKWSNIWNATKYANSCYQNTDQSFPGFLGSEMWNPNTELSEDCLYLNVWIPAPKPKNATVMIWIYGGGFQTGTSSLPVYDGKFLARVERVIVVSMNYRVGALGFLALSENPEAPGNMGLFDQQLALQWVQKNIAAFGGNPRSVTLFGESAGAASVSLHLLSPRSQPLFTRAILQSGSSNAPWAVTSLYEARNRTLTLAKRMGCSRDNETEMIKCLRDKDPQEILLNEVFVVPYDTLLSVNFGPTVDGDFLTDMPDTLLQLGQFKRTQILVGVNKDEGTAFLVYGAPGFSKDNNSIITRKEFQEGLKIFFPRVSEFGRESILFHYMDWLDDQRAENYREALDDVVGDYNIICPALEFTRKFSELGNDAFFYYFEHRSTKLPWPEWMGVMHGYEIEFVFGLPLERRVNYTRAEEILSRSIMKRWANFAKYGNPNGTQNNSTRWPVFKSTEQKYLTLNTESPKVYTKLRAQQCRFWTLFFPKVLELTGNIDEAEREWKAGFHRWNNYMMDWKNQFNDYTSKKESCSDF
T1 sequence (O42275 24-633): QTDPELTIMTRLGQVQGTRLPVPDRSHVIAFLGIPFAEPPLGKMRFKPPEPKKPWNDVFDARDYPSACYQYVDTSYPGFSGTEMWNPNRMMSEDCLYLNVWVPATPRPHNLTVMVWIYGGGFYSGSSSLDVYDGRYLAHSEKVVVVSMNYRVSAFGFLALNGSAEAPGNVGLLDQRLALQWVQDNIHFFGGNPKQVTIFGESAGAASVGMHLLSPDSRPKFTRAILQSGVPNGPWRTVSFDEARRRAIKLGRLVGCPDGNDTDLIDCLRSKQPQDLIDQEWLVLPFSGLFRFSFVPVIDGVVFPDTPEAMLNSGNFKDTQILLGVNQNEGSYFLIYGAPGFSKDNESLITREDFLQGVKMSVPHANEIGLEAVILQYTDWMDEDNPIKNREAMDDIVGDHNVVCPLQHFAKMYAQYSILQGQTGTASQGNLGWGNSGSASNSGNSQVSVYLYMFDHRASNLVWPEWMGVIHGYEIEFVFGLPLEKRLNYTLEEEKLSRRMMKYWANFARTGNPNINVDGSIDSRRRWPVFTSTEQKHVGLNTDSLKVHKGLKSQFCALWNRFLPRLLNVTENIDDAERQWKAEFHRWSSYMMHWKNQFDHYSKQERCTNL

SMILES | IC50 [1] | inhibition at 62.5 µg/mL [1] | inhibition at 125 µg/mL [1] | inhibition at 250 µg/mL [1] | inhibition at 500 µg/mL [1] | inhibition at 1000 µg/mL [1] | IC50 [2] | inhibition at 62.5 µg/mL [2] | inhibition at 125 µg/mL [2] | inhibition at 250 µg/mL [2] | inhibition at 500 µg/mL [2] | inhibition at 1000 µg/mL [2] | IC50 (DPPH antioxidant assay) | % Inhibition (DPPH free radicals) (DPPH antioxidant assay; 62.5 µg/ml) | % Inhibition (DPPH free radicals) (DPPH antioxidant assay; 125 µg/ml) | % Inhibition (DPPH free radicals) (DPPH antioxidant assay; 250 µg/ml) | % Inhibition (DPPH free radicals) (DPPH antioxidant assay; 500 µg/ml) | % Inhibition (DPPH free radicals) (DPPH antioxidant assay; 1000 µg/ml) | further results
C/C(=N/Cc1ccc(C)cc1)[C@H]1CC[C@H]2[C@@H]3CCC4=CC(=O)CC[C@]4(C)[C@H]3CC[C@]12C [AN2, (8S,9S,10R,13S,14S)-17-((Z)-1-((4-methylbenzyl)imino)ethyl)-10,13-dimethyl-1,2,6,7,8,9,10,11,12,13,14,15,16,17-tetradecahydro-3H-cyc-lopenta[a]phenanthren-3-one] | 173 µM | 48.3% | 57.4% | 64.3% | 75.7 ± 1.26% | 75.7 ± 2.82% | 138 µM | 50.8% | 52.9% | 74.1% | 72% | 77.5 ± 1.29% | 62.5 µM | 55.65 ± 2.44% | 57.44 ± 2.47% | 65.77 ± 3.32% | 66.26 ± 1.60% | 71.47 ± 1.83% | –
COc1ccc(C/N=C(/C)[C@H]2CC[C@H]3[C@@H]4CCC5=CC(=O)CC[C@]5(C)[C@H]4CC[C@]23C)cc1OC [AN3, (8S,9S,10R,13S,14S,17S)-17-((Z)-1-((3,4-dimethoxybenzyl)imino)ethyl)-10,13-dimethyl-1,2,6,7,8,9,10,11,12,13,14,15,16,17-tetradecahydro-3H-cyclo-penta[a]phenanthren-3-one] | 133 µM | 50.7% | 62.9% | 64.6% | 78.2% | 82.8 ± 2.02% | 112 µM | 55.5% | 59.9% | 64.3% | 81.8% | 87.9 ± 1.96% | 86.4 µM | 54.18 ± 2.16% | 56.86 ± 2.33% | 61.18 ± 2.23% | 66.44 ± 2.58% | 72.32 ± 1.37% | –
C/C(=N/Cc1ccc(Cl)cc1)[C@H]1CC[C@H]2[C@@H]3CCC4=CC(=O)CC[C@]4(C)[C@H]3CC[C@]12C [AN4, (8S,9S,10R,13S,14S,17S)-17-((Z)-1-((4-chlorobenzyl)imino)ethyl)-10,13-dimethyl-1,2,6,7,8,9,10,11,12,13,14,15,16,17-tetradecahydro-3H-cyclopenta [a]phenanthren-3-one] | 213 µM | 47% | 52.7% | 60.3% | 67.7% | 70 ± 2.26% | 149 µM | 49.5% | 56.9% | 63.1% | 64.7% | 76.3 ± 1.56% | 188 µM | 46.88 ± 0.65% | 55.52 ± 3.43% | 60.69 ± 1.92% | 66.80 ± 3.47% | 69.87 ± 2.81% | –
C/C(=N/Cc1ccccc1)[C@H]1CC[C@H]2[C@@H]3CCC4=CC(=O)CC[C@]4(C)[C@H]3CC[C@]12C [AN5, (8S,9S,10R,13S,14S)-17-((Z)-1-(benzylimino)ethyl)-10,13-dimethyl-1,2,6,7,8,9,10,11, 12,13,14,15,16,17-tetradecahydro-3H cyclopenta[a]phenan-thren-3-one] | 156 µM | 50.4% | 59.7% | 65.2% | 77.3% | 83.5 ± 2.31% | 63 µM | 58.1% | 65.9% | 71.4% | 75.8% | 85.5 ± 2.83% | 110 µM | 52.18 ± 1.42% | 56.99 ± 2.50% | 65.46 ± 1.83% | 67.51 ± 2.56% | 73.12 ± 1.04% | –
O=C1O[C@H]([C@@H](O)CO)C(O)=C1O [Ascorbic Acid, Ascorbic acid, reference compound] | – | – | – | – | – | – | – | – | – | – | – | – | 54.1 µM | 67.69 ± 2.18% | 71.25 ± 4.29% | 74.50 ± 3.04% | 86.00 ± 0.70% | 91.17 ± 1.62% | –
COc1ccc2c3c1O[C@H]1C[C@@H](O)C=C[C@@]31CCN(C)C2 [Galantamine, reference compound] | – | – | – | – | – | – | – | 67.2% | 72.9% | 77.4% | 84.4% | 89.5 ± 1.93% | – | – | – | – | – | – | retention transfer latency (RTL) [3]: 38.33 s; initial transfer latency (ITL) [3]: 47.33 s; spontaneous alternation [4]: 47.56%; number of lines crossed [5]: 50.33; time spent in the central area [5]: 13 mint; time spent in the peripheral area [5]: significantly (p<0.01) less time in the peripheral area
CC(=O)[C@H]1CC[C@H]2[C@@H]3CCC4=CC(=O)CC[C@]4(C)[C@H]3CC[C@]12C [progesterone] | – | – | – | – | – | – | – | – | – | – | – | – | – | – | – | – | – | – | retention transfer latency (RTL) [3]: 50.33 s; initial transfer latency (ITL) [3]: 56.5 s; spontaneous alternation [4]: 40.001%; number of lines crossed [5]: 42; time spent in the central area [5]: 9.66 mint; time spent in the peripheral area [5]: significant (p˂0.05) decline in time spent peripherally
